Literature values as cited in patent US6901278B1, “Methods for reducing the risk of breast cancer in and improving the health of women” (priority 2002, dated 2005).

Conditions: following first-pass hepatic metabolism

## C[C@]12CC[C@@H]3c4ccc(O)cc4CC[C@H]3[C@@H]1CC[C@@H]2O [Estradiol, 17β-estradiol]
  bioavailable fraction of oral estradiol: 5%
